Columns and labels:
Assay in all cases: KINOMEscan
Type in all cases: binding
DLK = DLK (Homo sapiens (Human), UniProt Q12852); details: read-out: percent control
Text: (§1) Example 2. In Vitro Kinase Selectivity Profiling of the Compounds of the Present Disclosure

PDGFRA = PDGFRA (Homo sapiens (Human), UniProt P16234); details: read-out: percent control
Text: as §1

EGFR(L747-T751del, Sins) = details: 1 μM
Text: as §1

CDKL3 = CDKL3 (Homo sapiens (Human), UniProt Q8IVW4); details: read-out: percent control
Text: as §1

PIK3CA = PIK3CA (Homo sapiens (Human), UniProt P42336); details: read-out: percent control
Text: as §1

PRP4 = PRP4 (Homo sapiens (Human), UniProt Q13523); details: read-out: percent control
PRP4, sequence (Q13523 whole entry, looked up): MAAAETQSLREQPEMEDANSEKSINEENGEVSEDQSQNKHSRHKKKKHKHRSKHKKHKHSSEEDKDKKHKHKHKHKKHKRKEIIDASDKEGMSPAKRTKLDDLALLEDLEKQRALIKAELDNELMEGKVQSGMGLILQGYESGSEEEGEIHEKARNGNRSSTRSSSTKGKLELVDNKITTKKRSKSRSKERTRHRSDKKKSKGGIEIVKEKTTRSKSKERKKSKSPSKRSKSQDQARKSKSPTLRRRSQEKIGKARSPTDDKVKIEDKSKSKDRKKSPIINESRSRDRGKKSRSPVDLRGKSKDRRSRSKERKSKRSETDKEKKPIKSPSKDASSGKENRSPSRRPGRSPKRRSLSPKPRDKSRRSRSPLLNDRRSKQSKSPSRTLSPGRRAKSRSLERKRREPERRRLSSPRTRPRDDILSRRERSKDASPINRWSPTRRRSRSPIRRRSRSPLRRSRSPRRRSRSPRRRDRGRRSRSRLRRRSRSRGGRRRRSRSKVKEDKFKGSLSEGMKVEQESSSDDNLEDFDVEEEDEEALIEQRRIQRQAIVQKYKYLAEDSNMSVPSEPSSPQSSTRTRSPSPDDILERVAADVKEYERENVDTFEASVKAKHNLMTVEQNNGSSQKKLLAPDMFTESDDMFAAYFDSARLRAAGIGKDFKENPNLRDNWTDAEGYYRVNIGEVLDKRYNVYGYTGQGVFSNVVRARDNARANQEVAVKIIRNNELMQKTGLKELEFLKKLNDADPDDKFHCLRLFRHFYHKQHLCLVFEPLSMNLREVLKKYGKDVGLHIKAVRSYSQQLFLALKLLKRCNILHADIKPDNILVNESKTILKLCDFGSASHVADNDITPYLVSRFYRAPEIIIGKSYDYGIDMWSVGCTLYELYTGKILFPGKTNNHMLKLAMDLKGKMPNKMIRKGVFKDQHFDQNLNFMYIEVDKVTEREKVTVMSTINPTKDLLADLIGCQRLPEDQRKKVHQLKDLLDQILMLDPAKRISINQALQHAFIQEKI
Text: as §1

PCTK1 = PCTK1 (Homo sapiens (Human), UniProt Q00536); details: read-out: percent control
Text: as §1

FLT3(ITD, D835V) = details: 1 μM
Text: as §1

RIPK5 = RIPK5 (Homo sapiens (Human), UniProt Q6XUX3); details: read-out: percent control
Text: as §1

NDR1 = NDR1 (Homo sapiens (Human), UniProt Q15208); details: read-out: percent control
NDR1, sequence (Q15208 whole entry): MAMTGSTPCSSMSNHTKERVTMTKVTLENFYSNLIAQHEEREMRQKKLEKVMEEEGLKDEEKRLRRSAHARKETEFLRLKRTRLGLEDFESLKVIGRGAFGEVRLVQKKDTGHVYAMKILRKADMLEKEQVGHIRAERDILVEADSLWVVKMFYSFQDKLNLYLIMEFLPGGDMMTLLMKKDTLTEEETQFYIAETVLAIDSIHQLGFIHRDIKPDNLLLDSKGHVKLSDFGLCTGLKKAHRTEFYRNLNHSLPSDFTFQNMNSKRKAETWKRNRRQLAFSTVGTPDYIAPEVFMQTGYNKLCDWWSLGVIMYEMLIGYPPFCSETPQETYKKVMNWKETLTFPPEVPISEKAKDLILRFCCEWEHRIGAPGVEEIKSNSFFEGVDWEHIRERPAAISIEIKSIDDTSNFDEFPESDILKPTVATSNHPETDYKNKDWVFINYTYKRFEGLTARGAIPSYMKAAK
Text: as §1

FLT3(D835V) = FLT3(D835V) (Homo sapiens (Human), UniProt P36888, D835V); details: read-out: percent control
Text: as §1

FYN = FYN (Homo sapiens (Human), UniProt P06241); details: read-out: percent control
Text: as §1

ULK1 = ULK1 (Homo sapiens (Human), UniProt O75385); details: read-out: percent control
Text: as §1

HIPK4 = HIPK4 (Homo sapiens (Human), UniProt Q8NE63); details: read-out: percent control
HIPK4, sequence (Q8NE63 whole entry): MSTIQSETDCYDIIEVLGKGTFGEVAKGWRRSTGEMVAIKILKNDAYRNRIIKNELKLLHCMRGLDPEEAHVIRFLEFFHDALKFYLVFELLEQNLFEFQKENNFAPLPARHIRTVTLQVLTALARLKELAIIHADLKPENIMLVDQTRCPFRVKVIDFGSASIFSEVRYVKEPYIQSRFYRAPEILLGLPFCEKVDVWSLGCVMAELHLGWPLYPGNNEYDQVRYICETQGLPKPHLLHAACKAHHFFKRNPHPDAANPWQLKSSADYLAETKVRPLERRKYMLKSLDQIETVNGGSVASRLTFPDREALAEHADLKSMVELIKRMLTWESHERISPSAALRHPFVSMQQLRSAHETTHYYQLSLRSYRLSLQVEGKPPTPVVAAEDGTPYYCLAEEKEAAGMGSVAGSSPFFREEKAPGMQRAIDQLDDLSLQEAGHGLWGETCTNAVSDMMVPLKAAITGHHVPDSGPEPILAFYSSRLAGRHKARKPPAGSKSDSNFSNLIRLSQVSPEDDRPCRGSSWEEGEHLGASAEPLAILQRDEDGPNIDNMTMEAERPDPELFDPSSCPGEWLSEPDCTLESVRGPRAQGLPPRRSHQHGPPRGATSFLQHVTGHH
Text: as §1

[1] = biological target: RSK3(Kin.Dom.1-N-terminal) (Homo sapiens (Human), UniProt Q15349); details: read-out: percent control
RSK3(Kin.Dom.1-N-terminal), sequence (Q15349 59-318 limits assumed): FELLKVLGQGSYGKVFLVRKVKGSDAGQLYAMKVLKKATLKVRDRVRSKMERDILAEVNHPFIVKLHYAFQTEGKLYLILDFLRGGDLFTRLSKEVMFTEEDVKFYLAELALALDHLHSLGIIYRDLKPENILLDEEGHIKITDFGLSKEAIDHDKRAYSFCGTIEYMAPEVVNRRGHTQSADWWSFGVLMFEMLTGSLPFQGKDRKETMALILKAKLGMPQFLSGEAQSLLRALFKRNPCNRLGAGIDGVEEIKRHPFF
Text: as §1

GAK = GAK (Homo sapiens (Human), UniProt O14976); details: read-out: percent control
Text: as §1

CDK11 = CDK11 (Homo sapiens (Human), UniProt Q9BWU1); details: read-out: percent control
Text: as §1

TAOK2 = TAOK2 (Homo sapiens (Human), UniProt Q9UL54); details: read-out: percent control
Text: as §1

MARK1 = MARK1 (Homo sapiens (Human), UniProt Q9P0L2); details: read-out: percent control
Text: as §1

MKNK2 = MKNK2 (Homo sapiens (Human), UniProt Q9HBH9); details: read-out: percent control
Text: as §1

ALK = ALK (Homo sapiens (Human), UniProt Q9UM73); details: read-out: percent control
Text: as §1

PIK3CB = PIK3CB (Homo sapiens (Human), UniProt P42338); details: read-out: percent control
Text: as §1

ANKK1 = ANKK1 (Homo sapiens (Human), UniProt Q8NFD2); details: read-out: percent control
ANKK1, sequence (Q8NFD2 whole entry): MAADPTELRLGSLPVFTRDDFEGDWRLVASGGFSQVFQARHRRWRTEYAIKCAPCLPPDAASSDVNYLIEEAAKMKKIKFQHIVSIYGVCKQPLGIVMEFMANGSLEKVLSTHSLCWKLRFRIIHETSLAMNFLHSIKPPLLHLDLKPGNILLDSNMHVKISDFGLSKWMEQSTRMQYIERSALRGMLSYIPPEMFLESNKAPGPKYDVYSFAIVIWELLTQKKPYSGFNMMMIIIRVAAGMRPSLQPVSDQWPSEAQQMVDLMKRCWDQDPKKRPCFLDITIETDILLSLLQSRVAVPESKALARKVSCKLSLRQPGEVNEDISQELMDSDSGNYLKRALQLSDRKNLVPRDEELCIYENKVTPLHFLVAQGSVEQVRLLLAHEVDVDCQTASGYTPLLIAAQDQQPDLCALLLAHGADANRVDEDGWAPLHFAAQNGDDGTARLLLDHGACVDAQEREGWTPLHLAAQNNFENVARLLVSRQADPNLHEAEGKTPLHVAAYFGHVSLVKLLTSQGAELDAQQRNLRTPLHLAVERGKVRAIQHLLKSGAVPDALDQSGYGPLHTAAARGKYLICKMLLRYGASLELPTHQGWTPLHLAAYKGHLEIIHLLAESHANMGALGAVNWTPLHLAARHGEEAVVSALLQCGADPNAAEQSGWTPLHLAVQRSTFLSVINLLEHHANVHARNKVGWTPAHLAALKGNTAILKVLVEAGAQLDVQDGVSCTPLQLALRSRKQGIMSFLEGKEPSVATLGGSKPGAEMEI
Text: as §1

ERBB2 = ERBB2 (Homo sapiens (Human), UniProt P04626); details: read-out: percent control
Text: as §1

SIK2 = SIK2 (Homo sapiens (Human), UniProt Q9H0K1); details: read-out: percent control
Text: as §1

GRK3 = GRK3 (Homo sapiens (Human), UniProt P35626); details: read-out: percent control
Text: as §1

ERK3 = ERK3 (Homo sapiens (Human), UniProt Q16659); details: read-out: percent control
ERK3, sequence (Q16659 whole entry): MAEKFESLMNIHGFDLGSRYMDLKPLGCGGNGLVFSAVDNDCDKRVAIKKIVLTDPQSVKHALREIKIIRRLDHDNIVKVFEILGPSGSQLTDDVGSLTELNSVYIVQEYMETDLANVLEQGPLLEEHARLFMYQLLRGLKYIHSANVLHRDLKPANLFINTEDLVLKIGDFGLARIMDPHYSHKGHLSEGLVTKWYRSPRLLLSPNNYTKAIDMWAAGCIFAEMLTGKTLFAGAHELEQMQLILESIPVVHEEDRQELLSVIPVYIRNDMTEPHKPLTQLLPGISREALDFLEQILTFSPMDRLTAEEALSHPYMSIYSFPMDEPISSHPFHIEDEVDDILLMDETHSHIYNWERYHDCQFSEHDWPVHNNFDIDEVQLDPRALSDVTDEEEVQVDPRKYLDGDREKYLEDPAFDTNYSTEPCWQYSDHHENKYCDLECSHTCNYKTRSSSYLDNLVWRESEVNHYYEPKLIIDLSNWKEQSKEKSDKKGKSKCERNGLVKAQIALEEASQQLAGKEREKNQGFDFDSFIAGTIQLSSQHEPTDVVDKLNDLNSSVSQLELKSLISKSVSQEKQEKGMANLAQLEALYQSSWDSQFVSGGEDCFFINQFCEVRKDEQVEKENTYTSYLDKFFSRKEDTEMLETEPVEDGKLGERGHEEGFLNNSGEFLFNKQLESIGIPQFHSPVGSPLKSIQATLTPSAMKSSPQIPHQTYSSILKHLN
Text: as §1

HIPK3 = HIPK3 (Homo sapiens (Human), UniProt Q9H422); details: read-out: percent control
Text: as §1

MEK6 = MEK6 (Homo sapiens (Human), UniProt P52564); details: read-out: percent control
Text: as §1

CAMK2A = CAMK2A (Homo sapiens (Human), UniProt Q9UQM7); details: read-out: percent control
Text: as §1

TEC = TEC (Homo sapiens (Human), UniProt P42680); details: read-out: percent control
TEC, sequence (P42680 whole entry): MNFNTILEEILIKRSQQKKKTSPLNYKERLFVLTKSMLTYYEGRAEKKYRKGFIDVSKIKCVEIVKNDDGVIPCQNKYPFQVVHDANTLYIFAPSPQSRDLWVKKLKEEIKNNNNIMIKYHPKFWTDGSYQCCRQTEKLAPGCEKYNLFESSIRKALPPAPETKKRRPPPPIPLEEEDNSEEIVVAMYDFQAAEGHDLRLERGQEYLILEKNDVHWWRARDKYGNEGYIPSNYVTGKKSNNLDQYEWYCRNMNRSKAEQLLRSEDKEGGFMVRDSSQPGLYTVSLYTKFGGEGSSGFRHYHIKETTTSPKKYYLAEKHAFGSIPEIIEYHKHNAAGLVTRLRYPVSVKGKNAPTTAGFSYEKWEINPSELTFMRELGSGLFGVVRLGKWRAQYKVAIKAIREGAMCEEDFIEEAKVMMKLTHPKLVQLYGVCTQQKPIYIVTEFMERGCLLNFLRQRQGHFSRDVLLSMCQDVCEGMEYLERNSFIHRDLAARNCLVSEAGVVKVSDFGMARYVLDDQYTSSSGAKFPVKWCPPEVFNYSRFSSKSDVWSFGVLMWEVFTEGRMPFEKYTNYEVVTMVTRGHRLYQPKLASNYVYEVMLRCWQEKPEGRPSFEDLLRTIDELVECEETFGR
Text: as §1

OSR1 = OSR1 (Homo sapiens (Human), UniProt O95747); details: read-out: percent control
Text: as §1

SYK = SYK (Homo sapiens (Human), UniProt P43405); details: read-out: percent control
Text: as §1

MEK5 = MEK5 (Homo sapiens (Human), UniProt Q13163); details: read-out: percent control
Text: as §1

MRCKB = MRCKB (Homo sapiens (Human), UniProt Q9Y5S2); details: read-out: percent control
Text: as §1

WNK4 = WNK4 (Homo sapiens (Human), UniProt Q96J92); details: read-out: percent control
Text: as §1

ERBB3 = ERBB3 (Homo sapiens (Human), UniProt P21860); details: read-out: percent control
Text: as §1

[2] = biological target: ABL1(Q252H)-phosphorylated (Homo sapiens (Human), UniProt P00519, Q252H); details: read-out: percent control
Text: as §1

PIK3CA(M1043I) = PIK3CA(M1043I) (Homo sapiens (Human), UniProt P42336, M1043I); details: read-out: percent control
Text: as §1

CLK1 = CLK1 (Homo sapiens (Human), UniProt P49759); details: read-out: percent control
CLK1, sequence (P49759 whole entry): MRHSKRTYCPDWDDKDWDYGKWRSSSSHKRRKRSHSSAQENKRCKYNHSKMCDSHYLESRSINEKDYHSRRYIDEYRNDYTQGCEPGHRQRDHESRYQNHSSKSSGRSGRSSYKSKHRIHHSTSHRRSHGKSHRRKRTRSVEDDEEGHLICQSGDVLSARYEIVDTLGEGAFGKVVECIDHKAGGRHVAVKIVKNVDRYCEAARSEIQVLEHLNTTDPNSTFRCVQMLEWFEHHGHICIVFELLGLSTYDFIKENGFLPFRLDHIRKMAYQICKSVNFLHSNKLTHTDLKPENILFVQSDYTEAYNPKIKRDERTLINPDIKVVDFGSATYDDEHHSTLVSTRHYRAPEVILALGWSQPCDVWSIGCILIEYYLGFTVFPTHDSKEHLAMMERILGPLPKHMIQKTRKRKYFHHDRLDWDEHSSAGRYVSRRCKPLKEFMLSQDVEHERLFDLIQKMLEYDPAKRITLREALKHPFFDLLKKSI
Text: as §1

ASK2 = ASK2 (Homo sapiens (Human), UniProt O95382); details: read-out: percent control
Text: as §1

CCN1CCN(Cc2ccc(Nc3nc4ccc(Oc5ccnc(NC(C)=O)c5)c(C)c4n3C)cc2C(F)(F)F)CC1 [Compound I-6, N-(4-(2-(4-((4-ethylpiperazin-1-yl)methyl)-3-(trifluoromethyl)phenylamino)-1,7-dimethyl-1H-benzo[d]imidazol-6-yloxy)pyridin-2-yl)acetamide]
remaining binding at 1 µM (DLK): 100%
remaining binding at 1 µM (PDGFRA): 4.2%
percent control (EGFR(L747-T751del, Sins)): 100%
remaining binding at 1 µM (CDKL3): 0.4%
remaining binding at 1 µM (PIK3CA): 91%
remaining binding at 1 µM (PRP4): 100%
remaining binding at 1 µM (PCTK1): 68%
percent control (FLT3(ITD, D835V)): 61%
remaining binding at 1 µM (RIPK5): 61%
remaining binding at 1 µM (NDR1): 100%
remaining binding at 1 µM (FLT3(D835V)): 40%
remaining binding at 1 µM (FYN): 49%
remaining binding at 1 µM (ULK1): 56%
remaining binding at 1 µM (HIPK4): 100%
remaining binding at 1 µM [1]: 100%
remaining binding at 1 µM (GAK): 98%
remaining binding at 1 µM (CDK11): 1.6%
remaining binding at 1 µM (TAOK2): 0%
remaining binding at 1 µM (MARK1): 92%
remaining binding at 1 µM (MKNK2): 66%
remaining binding at 1 µM (ALK): 90%
remaining binding at 1 µM (PIK3CB): 96%
remaining binding at 1 µM (ANKK1): 100%
remaining binding at 1 µM (ERBB2): 100%
remaining binding at 1 µM (SIK2): 97%
remaining binding at 1 µM (GRK3): 79%
remaining binding at 1 µM (ERK3): 94%
remaining binding at 1 µM (HIPK3): 76%
remaining binding at 1 µM (MEK6): 71%
remaining binding at 1 µM (CAMK2A): 100%
remaining binding at 1 µM (TEC): 100%
remaining binding at 1 µM (OSR1): 87%
remaining binding at 1 µM (SYK): 92%
remaining binding at 1 µM (MEK5): 34%
remaining binding at 1 µM (MRCKB): 100%
remaining binding at 1 µM (WNK4): 82%
remaining binding at 1 µM (ERBB3): 89%
remaining binding at 1 µM [2]: 24%
remaining binding at 1 µM (PIK3CA(M1043I)): 100%
remaining binding at 1 µM (CLK1): 94%
remaining binding at 1 µM (ASK2): 89%

CCN1CCN(Cc2ccc(Nc3nc4ccc(Oc5ccnc(NC(C)=O)c5)cc4n3C)cc2C(F)(F)F)CC1 [Compound I-2]
remaining binding at 1 µM (DLK): 100%
remaining binding at 1 µM (PDGFRA): 3.8%
percent control (EGFR(L747-T751del, Sins)): 98%
remaining binding at 1 µM (CDKL3): 7.6%
remaining binding at 1 µM (PIK3CA): 90%
remaining binding at 1 µM (PRP4): 100%
remaining binding at 1 µM (PCTK1): 84%
percent control (FLT3(ITD, D835V)): 100%
remaining binding at 1 µM (RIPK5): 69%
remaining binding at 1 µM (NDR1): 90%
remaining binding at 1 µM (FLT3(D835V)): 51%
remaining binding at 1 µM (FYN): 80%
remaining binding at 1 µM (ULK1): 100%
remaining binding at 1 µM (HIPK4): 100%
remaining binding at 1 µM [1]: 70%
remaining binding at 1 µM (GAK): 100%
remaining binding at 1 µM (CDK11): 1.5%
remaining binding at 1 µM (TAOK2): 0.25%
remaining binding at 1 µM (MARK1): 98%
remaining binding at 1 µM (MKNK2): 82%
remaining binding at 1 µM (ALK): 76%
remaining binding at 1 µM (PIK3CB): 100%
remaining binding at 1 µM (ANKK1): 100%
remaining binding at 1 µM (ERBB2): 95%
remaining binding at 1 µM (SIK2): 100%
remaining binding at 1 µM (GRK3): 100%
remaining binding at 1 µM (ERK3): 94%
remaining binding at 1 µM (HIPK3): 85%
remaining binding at 1 µM (MEK6): 88%
remaining binding at 1 µM (CAMK2A): 79%
remaining binding at 1 µM (TEC): 78%
remaining binding at 1 µM (OSR1): 100%
remaining binding at 1 µM (SYK): 85%
remaining binding at 1 µM (MEK5): 59%
remaining binding at 1 µM (MRCKB): 100%
remaining binding at 1 µM (WNK4): 93%
remaining binding at 1 µM (ERBB3): 62%
remaining binding at 1 µM [2]: 36%
remaining binding at 1 µM (PIK3CA(M1043I)): 78%
remaining binding at 1 µM (CLK1): 87%
remaining binding at 1 µM (ASK2): 97%
